The results in this text go back to patent US10981894B2, “Melanocortin subtype-2 receptor (MC2R) antagonists and uses thereof” (Crinetics Pharmaceuticals, Inc., priority 2018, dated 2021).

For this assay, the target named is hMC2 receptor (Homo sapiens, UniProt Q01718). The assay can be described thus: hMC2 membrane binding assay ([125I]ACTH (1-39) Tyr23, SPA). Also noted: scale not given here. The settings on record: crude hMC2R membranes from CRE-bla-CHO-K1 cells expressing hMC2 receptor and hMRAP; [125I]ACTH (1-39) Tyr23 0.2 nM; 1.5 hours at room temperature; read-out: MC2R binding potency. Summed up: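 Ki comes from non-linear regression of SPA scintillation counts. Displacement of 0.2 nM [125I]ACTH(1-39) Tyr23 by compound dose series (usually 0–10,000 nM final) ran 1.5 h at room temperature. Membranes came from CHO-K1 CRE-bla cells stably expressing hMC2R plus hMRAP, bead-coupled in pH 7.4 buffer with 0.2% BSA.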
hMC2 receptor, sequence (Q01718 whole entry): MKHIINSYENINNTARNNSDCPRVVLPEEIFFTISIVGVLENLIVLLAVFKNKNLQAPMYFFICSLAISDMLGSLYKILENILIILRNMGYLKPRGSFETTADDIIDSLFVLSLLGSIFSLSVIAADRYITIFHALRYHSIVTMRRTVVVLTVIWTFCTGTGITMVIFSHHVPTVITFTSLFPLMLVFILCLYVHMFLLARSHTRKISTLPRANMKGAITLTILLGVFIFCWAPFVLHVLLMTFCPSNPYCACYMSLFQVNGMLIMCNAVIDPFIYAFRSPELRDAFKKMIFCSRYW
hMC2 receptor, sequence (Q8TCY5 whole entry partner): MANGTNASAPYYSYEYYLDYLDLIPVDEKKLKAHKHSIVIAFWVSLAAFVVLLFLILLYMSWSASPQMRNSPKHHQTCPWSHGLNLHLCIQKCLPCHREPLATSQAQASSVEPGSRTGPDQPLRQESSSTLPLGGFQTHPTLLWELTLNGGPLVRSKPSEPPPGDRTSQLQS
Regarding `CCOc1ncccc1-c1ccc(N2CCN(C(=O)C3(C(F)(F)F)CCCC3)C[C@H]2CC)c(C(=O)NC23CCN(CC2)C3)n1` [Compound 1-405, N-{1-azabicyclo[2.2.1]heptan-4-yl}-2′-ethoxy-5-[(2R)-2-ethyl-4-[1-(trifluoromethyl)cyclopentanecarbonyl]piperazin-1-yl]-[2,3′-bipyridine]-6-carboxamide], the Ki was below 10 nM. The result for `CCOc1ncccc1-c1ccc(N2CCN(C(=O)N3CCc4cccc(C#N)c43)C[C@H]2CC)c(C(=O)N[C@H]2CCN(C)C2)n1` [Compound 1-404, 5-[(2R)-4-(7-cyano-2,3-dihydro-1H-indole-1-carbonyl)-2-ethylpiperazin-1-yl]-2′-ethoxy-N-[(3S)-1-methylpyrrolidin-3-yl]-[2,3′-bipyridine]-6-carboxamide] reads below 10 nM; that for `CCOc1ccccc1-c1ccc(N2CCN(C(=O)c3ccc(C)cc3-c3ccc(CN)cc3)C[C@H]2CC)c(C(=O)NCCN)c1` [Compound 1-18, (R)-N-(2-aminoethyl)-4-(4-(4′-(aminomethyl)-5-methyl-[1,1′-biphenyl]-2-carbonyl)-2-ethylpiperazin-1-yl)-2′-ethoxy-[1,1′-biphenyl]-3-carboxamide], below 10 nM.

On to `CCOc1ncccc1-c1ccc(N2CCN(C(=O)c3ccc(Cl)cc3C)C[C@H]2CC)c(C(=O)NCCN)c1` [Compound 1-87, N-(2-aminoethyl)-2-[(2R)-4-(4-chloro-2-methylbenzoyl)-2-ethylpiperazin-1-yl]-5-(2-ethoxypyridin-3-yl)benzamide], for which the Ki was below 10 nM. Then `CCOc1ncccc1-c1ccc(N2CCN(C(=O)C3(c4ccccc4)CCCC3)C[C@H]2CC)c(C(=O)N[C@@H]2CCNC2)n1` [Compound 1-352, 2′-ethoxy-5-[(2R)-2-ethyl-4-(1-phenylcyclopentanecarbonyl)piperazin-1-yl]-N-[(3R)-pyrrolidin-3-yl]-[2,3′-bipyridine]-6-carboxamide], with below 10 nM; and `CCOc1ccccc1-c1ccc(N2CCN(C(=O)C3(C(F)(F)F)CCCC3)C[C@H]2CC)c(C(=O)N[C@H]2CCN(C)C2)n1` [Compound 1-401, 6-(2-ethoxyphenyl)-3-[(2R)-2-ethyl-4-[1-(trifluoromethyl)cyclopentanecarbonyl]piperazin-1-yl]-N-[(3S)-1-methylpyrrolidin-3-yl]pyridine-2-carboxamide], with below 10 nM.

With `CCOc1ncccc1-c1ccc(N2CCN(C(=O)c3ccc(Cl)cc3C(F)F)C[C@H]2CC)c(C(=O)NCCN(C)C)c1F` [Compound 1-184, 6-[(2R)-4-[4-chloro-2-(difluoromethyl)benzoyl]-2-ethylpiperazin-1-yl]-N-[2-(dimethylamino)ethyl]-3-(2-ethoxypyridin-3-yl)-2-fluorobenzamide], the Ki is below 10 nM. For the compound `CCOc1ccccc1-c1ccc(N2CCN(C(=O)N3CCc4cc(F)cc(C#N)c43)C[C@H]2CC)c(C(=O)N[C@H]2CCN(C)C2)n1` [Compound 1-426, 3-[(2R)-4-(7-cyano-5-fluoro-2,3-dihydro-1H-indole-1-carbonyl)-2-ethylpiperazin-1-yl]-6-(2-ethoxyphenyl)-N-[(3S)-1-methylpyrrolidin-3-yl]pyridine-2-carboxamide], the Ki is below 10 nM. The result for `CCOc1ccccc1-c1ccc(N2CCN(C(=O)c3ccc(Cl)cc3C(F)(F)F)C[C@H]2CC)c(C(=O)NC2CNC2)n1` [Compound 1-220, N-(azetidin-3-yl)-3-[(2R)-4-[4-chloro-2-(trifluoromethyl)benzoyl]-2-ethylpiperazin-1-yl]-6-(2-ethoxyphenyl)pyridine-2-carboxamide] reads below 10 nM. As for `CCOc1ncccc1-c1ccc(N2CCN(C(=O)N3CCc4cccc(Cl)c43)C[C@H]2CC)c(C(=O)N[C@@H]2CCNC2)n1` [Compound 1-346, 5-[(2R)-4-(7-chloro-2,3-dihydro-1H-indole-1-carbonyl)-2-ethylpiperazin-1-yl]-2′-ethoxy-N-[(3R)-pyrrolidin-3-yl]-[2,3′-bipyridine]-6-carboxamide], the Ki is below 10 nM. Then `CCOc1ccccc1-c1ccc(N2CCN(C(=O)c3ccc(C(F)(F)F)cc3Cl)C[C@H]2CC)c(C(=O)NCCN)c1` [Compound 1-3, N-(2-aminoethyl)-4-[(2R)-4-[2-chloro-4-(trifluoromethyl)benzoyl]-2-ethylpiperazin-1-yl]-2′-ethoxy-[1,1′-biphenyl]-3-carboxamide], with below 10 nM; and `CCOc1ccccc1-c1ccc(N2CCN(C(=O)N3CCC[C@H]3C(C)(C)F)C[C@H]2CC)c(C(=O)N[C@@H]2CCN(C)C2)n1` [Compound 1-412, 6-(2-ethoxyphenyl)-3-[(2R)-2-ethyl-4-[(2S)-2-(2-fluoropropan-2-yl)pyrrolidine-1-carbonyl]piperazin-1-yl]-N-[(3R)-1-methylpyrrolidin-3-yl]pyridine-2-carboxamide], with below 10 nM. Regarding `CCOc1ccccc1-c1ccc(N2CCN(C(=O)N3CCC[C@H]3C(F)(F)F)C[C@H]2CC)c(C(=O)N[C@H]2CCNC2)n1` [Compound 1-343, 6-(2-ethoxyphenyl)-3-[(2R)-2-ethyl-4-[(2S)-2-(trifluoromethyl)pyrrolidine-1-carbonyl]piperazin-1-yl]-N-[(3S)-pyrrolidin-3-yl]pyridine-2-carboxamide], the Ki was below 10 nM. For `CC[C@@H]1CN(C(=O)c2ccc(C(F)(F)F)cc2Cl)CCN1c1ccc(-c2cccc(F)c2F)cc1C(=O)NCCN` [Compound 1-1, N-(2-aminoethyl)-4-[(2R)-4-[2-chloro-4-(trifluoromethyl)benzoyl]-2-ethylpiperazin-1-yl]-2′,3′-difluoro-[1,1′-biphenyl]-3-carboxamide], the Ki was in the range of 10 to 100 nM.

Regarding `CCOc1ncccc1-c1ccc(N2CCN(C(=O)c3ccc(F)cc3N3CCC(CN)C3)C[C@H]2CC)c(C(=O)NCCN)c1` (stereo partly drawn) [Compound 1-51, N-(2-aminoethyl)-2-[(2R)-4-{2-[3-(aminomethyl)pyrrolidin-1-yl]-4-fluorobenzoyl}-2-ethylpiperazin-1-yl]-5-(2-ethoxypyridin-3-yl)benzamide], the Ki was below 10 nM. The result for `CCOc1ccccc1-c1ccc(N2CCN(C(=O)C3(C(F)(F)F)CCCC3)C[C@H]2CC)c(C(=O)N[C@@H]2CCN(C)C2)n1` [Compound 1-341, 6-(2-ethoxyphenyl)-3-[(2R)-2-ethyl-4-[1-(trifluoromethyl)cyclopentanecarbonyl]piperazin-1-yl]-N-[(3R)-1-methylpyrrolidin-3-yl]pyridine-2-carboxamide] reads below 10 nM; that for `CCOc1ncccc1-c1ccc(N2CCN(C(=O)C3(C(F)(F)F)CCCC3)C[C@H]2CC)c(C(=O)N[C@H]2CCNC2)n1` [Compound 1-321, 2′-ethoxy-5-[(2R)-2-ethyl-4-[1-(trifluoromethyl)cyclopentanecarbonyl]piperazin-1-yl]-N-[(3S)-pyrrolidin-3-yl]-[2,3′-bipyridine]-6-carboxamide], below 10 nM; that for `CCOc1ccccc1-c1ccc(N2CCN(C(=O)C3(C(F)(F)F)CCC3)C[C@H]2CC)c(C(=O)N[C@@H]2CN3CCC2CC3)n1` [Compound 1-410, N-[(3S)-1-azabicyclo[2.2.2]octan-3-yl]-6-(2-ethoxyphenyl)-3-[(2R)-2-ethyl-4-[1-(trifluoromethyl)cyclobutanecarbonyl]piperazin-1-yl]pyridine-2-carboxamide], below 10 nM.

Take `CCOc1ncccc1-c1ccc(N2CCN(C(=O)c3ccc(C)cc3Cl)C[C@H]2CC)c(C(=O)NCCN)c1` [Compound 1-43, N-(2-aminoethyl)-2-[(2R)-4-(2-chloro-4-methylbenzoyl)-2-ethylpiperazin-1-yl]-5-(2-ethoxypyridin-3-yl)benzamide]: the Ki was below 10 nM.

Regarding `CCOc1ncccc1-c1ccc(N2CCN(C(=O)O[C@H](C(C)(C)C)C(F)(F)F)C[C@H]2CC)c(C(=O)N[C@@H]2CCN(C)C2)n1` (single isomer, unassigned) [Compound 1-406], the Ki is below 10 nM. Regarding `CCOc1ncccc1-c1ccc(N2CCN(C(=O)c3ccc(Cl)cc3C(F)(F)F)C[C@H]2CC)c(C(=O)NC[C@H]2CCCN2)c1F` [Compound 1-124, 6-[(2R)-4-[4-chloro-2-(trifluoromethyl)benzoyl]-2-ethylpiperazin-1-yl]-3-(2-ethoxypyridin-3-yl)-2-fluoro-N-{[(2R)-pyrrolidin-2-yl]methyl}benzamide], the Ki is below 10 nM. Turning to `CCOc1ncccc1-c1ccc(N2CCN(C(=O)c3ccc(C4CC4)cc3C)C[C@H]2CC)c(C(=O)NCCN)c1` [Compound 1-88, N-(2-aminoethyl)-2-[(2R)-4-(4-cyclopropyl-2-methylbenzoyl)-2-ethylpiperazin-1-yl]-5-(2-ethoxypyridin-3-yl)benzamide], the Ki is below 10 nM. Then `CCOc1ncccc1-c1ccc(N2CCN(C(=O)c3ccc(OC)cc3C(F)(F)F)C[C@H]2CC)c(C(=O)NCCNC)n1` [Compound 1-167, 2′-ethoxy-5-[(2R)-2-ethyl-4-[4-methoxy-2-(trifluoromethyl)benzoyl]piperazin-1-yl]-N-[2-(methylamino)ethyl]-[2,3′-bipyridine]-6-carboxamide], with below 10 nM.

Take `CCOc1ccccc1-c1ccc(N2CCN(C(=O)OC(C(C)(C)C)C(F)(F)F)C[C@H]2CC)c(C(=O)N[C@@H]2CCNC2)n1` (stereo partly drawn) [Compound 1-348, 1,1,1-trifluoro-3,3-dimethylbutan-2-yl (3R)-4-[6-(2-ethoxyphenyl)-2-{[(3R)-pyrrolidin-3-yl]carbamoyl}pyridin-3-yl]-3-ethylpiperazine-1-carboxylate]: the Ki is below 10 nM. Regarding `CCOc1ncccc1-c1ccc(N2CCN(C(=O)c3ccc(Cl)cc3C(F)(F)F)C[C@H]2CC)c(C(=O)N[C@@H]2CCN(C)C2)n1` [Compound 1-152, 5-[(2R)-4-[4-chloro-2-(trifluoromethyl)benzoyl]-2-ethylpiperazin-1-yl]-2′-ethoxy-N-[(3R)-1-methylpyrrolidin-3-yl]-[2,3′-bipyridine]-6-carboxamide], the Ki was below 10 nM.
